Data as given in patent US20230302025A1, “METHODS FOR MAINTAINING MICROVASCULAR INTEGRITY” (SCISPARC LTD., priority 2020, published 2023).
Entries after “also recorded” stand apart in the source; their conditions may differ.

Tests used:
[1] = system: blood-brain barrier (BBB) of mTBI rats; assay: Contrast-enhanced MRI of blood-brain barrier permeability in repeated mild TBI rat model; type: in vivo, Sprague-Dawley rats
[2] = system: cortical microvasculature (BBB) of mTBI rats; assay: Intravital microscopy (open window, fluorescent angiography) of cortical microvascular permeability in repeated mild TBI rat model; type: in vivo, Sprague-Dawley rats; conditions: repeated THC 0.002 mg/kg i.p.; 6-8 days after first injury; vs vehicle-injected controls
[3] = system: mTBI rats; assay: Electrocorticographic recording of paroxysmal slow wave events (PSWEs) in repeated mild TBI rat model; type: in vivo, Sprague-Dawley rats
[4] = system: mTBI rats; assay: Neurological scoring / neurological complications after repeated mild TBI; type: in vivo, Sprague-Dawley rats; conditions: daily injection of THC 0.002 mg/kg i.p.; 60% without THC
[5] = intravenous, humans; cited from earlier work

| Compound | % of brain volume with pathological (damaged) BBB ([1]; repeated (daily, after each impact) THC 0.002 mg/kg i.p., CE-MRI after rmTBI, vs TBI vehicle) | % of brain volume with pathological voxels compared to non-injured controls ([1]; repeated THC 0.002 mg/kg i.p., CE-MRI, FIG. 1D) | effect on trauma-induced BBB breakdown ([1]; repeated THC, data from both CE-MRI and intravital microscopy) | cortical microvascular (BBB) permeability [2] | number of PSWEs ([3]; repeated THC 0.002 mg/kg i.p., ECoG 3-4 weeks following injury) | number of PSWEs ([3]; single THC dose (THC1) 0.002 mg/kg i.p. after first impact, vs controls, FIG. 3B) | risk for neurological complications [4] | estimated lethal dose [5] |
| --- | --- | --- | --- | --- | --- | --- | --- | --- |
| CCCCCc1cc(O)c2c(c1)OC(C)(C)[C@@H]1CCC(C)=C[C@@H]21 [THC, Δ9-tetrahydrocannabinol] | Moderate decrease | not different compared to controls | mild protective and therapeutic effect | lower; also recorded: reduced | mild reduction; also recorded: lower occurrence | significant increase | 35% | – |
| CCCCCc1cc(O)c2c(c1)OC(C)(C)[C@@H]1CCC(C)=C[C@@H]21 [dronabinol, (−)-trans-[…]9-tetrahydrocannabinol] | – | – | – | – | – | – | – | 30 mg/kg |
